According to patent US7723523B2, “Tetrahydropyridothiophenes” (4SC AG, priority 2004, dated 2010):

What was measured:
[1] = tested on: RKO (RKOp27) human colon adenocarcinoma cells; assay: Alamar Blue cell viability assay, anti-proliferative/cytotoxic activity on proliferating RKOp27 cells; assay type: cell-based; settings: absence of Ponasterone A, 72 hours incubation, read-out: IC50 RKO p27 proliferating
Experimental: The anti-proliferative/cytotoxic activity of the compounds described herein, can be tested on subclones of RKO (RKOp27) human colon adenocarcinoma cells (Schmidt et al., Oncogene 19, 2423-2429; 2000) using the Alamar Blue cell viability assay (described in O'Brien et al. Eur J Biochem 267, 5421-5426, 2000). The compounds are dissolved as 20 mM solutions in dimethylsulfoxide (DMSO) and subsequently diluted in semi-logarithmic steps. DMSO dilutions are further diluted 1:100 into Dulbecco's modified Eagle's medium (DMEM) containing 10% fetal calf serum to a final concentration twice as much as the final concentration in the test. RKO subclones are seeded into 96 well flat bottom plates at a density of 4000 cells per well in a volume of 50 μl per well. 24 hours after seeding 50 μl each of the compound dilutions in DMEM are added into each well of the 96 well plate. Each compound dilution is tested as quadruplicates. Wells containing untreated control cells are filled with 50 μl DMEM containing 1% DMSO. The cells are then incubated with the substances for 72 hours at 37° C. in a humidified atmosphere containing 5% carbon dioxide. To determine the viability of the cells, 10 μl of an Alamar Blue solution (Biosource) are added and the fluorescence is measured at an extinction of 544 nm and an emission of 590 nm. For the calculation of the cell viability the emission value from untreated cells is set as 100% viability and the emission rates of treated cells are set in relation to the values of untreated cells. Viabilities are expressed as % values.
The corresponding IC50 values of the compounds for anti-proliferative/cytotoxic activity are determined from the concentration-effect curves.
Representative IC50 values for anti-proliferation/cytotoxicity determined in the aforementioned assay are described in the table A (1st column), in which the numbers of the compound correspond to the numbers of the examples.

[2] = tested on: RKO colon adenocarcinoma cells (RKOp27) arrested by expression of ectopic p27Kip1; assay: Alamar Blue cell viability assay on RKOp27 cells arrested by Ponasterone A-induced p27Kip1 (cell cycle specific mode of action); assay type: cell-based; settings: Homo sapiens, RKOp27, 72 h, cells arrested by p27Kip1 induced with 10 μM Ponasterone A, 72 hours incubation, read-out: IC50 RKO p27 arrested
Experimental: To determine the cell cycle specific mode of action, subclones of RKO colon adenocarcinoma cells (RKOp27 or RKOp21 as described by Schmidt et al. in Oncogene 19, 2423-2429; 2000) are seeded into 96 well flat bottom plates at a density of 16000 cells per well in a volume of 50 μl per well in DMEM growth medium with 10% FCS containing 10 μM Ponasterone A. 24 hours after seeding 50 μl each of the compound dilutions in DMEM are added into each well of the 96 well plate. Each compound dilution is tested as quadruplicates. Wells containing untreated control cells are filled with 50 μl DMEM containing 1% DMSO. The cells are then incubated with the substances for 72 hours at 37° C. in a humidified atmosphere containing 5% carbon dioxide. To determine the viability of the cells, 10 μl of an Alamar Blue solution (Biosource) are added and the fluorescence is measured at an extinction of 544 nm and an emission of 590 nm. For the calculation of the cell viability the emission value from untreated cells is set as 100% viability and the emission rates of treated cells are set in relation to the values of untreated cells. Viabilities are expressed as % values. Viability is compared of proliferating cells grown in the absence of the inducer Ponasterone A, versus viability of cells arrested by the expression of ectopic p27Kip1 induced by Ponasterone A. The data of this experimental setting are summarized in table A (2nd column).

Row | SMILES | IC50 [1] [µM] | IC50 [2] [µM]
1 | CCSC(=O)N1CCc2c(sc(NC(=O)/C=C/c3cccnc3)c2C#N)C1 [Example 36, 3-Cyano-2-((E)-3-pyridin-3-yl-allanoylamino)-4,7-dihydro-5H-thieno[2,3-c]pyridine-6-carbothioic acid S-ethyl ester] | ≤ 2 | > 100
2 | CCNC(=O)N1CCc2c(sc(NC(=O)/C=C/c3ccccc3)c2C#N)C1 [Example 37, 3-Cyano-2-((E)-phenyl-allanoylamino)-4,7-dihydro-5H-thieno[2,3-c]pyridine-6-carboxylic acid ethylamide] | ≤ 2 | > 100
3 | CCNC(=O)N1CCc2c(sc(NC(=O)/C=C/c3cccnc3)c2C#N)C1 [Example 38, 3-Cyano-2-((E)-3-pyridin-3-yl-allanoylamino)-4,7-dihydro-5H-thieno[2,3-c]pyridine-6-carboxylic acid ethylamide] | ≤ 2 | > 100
4 | CCCC(=O)N1CCc2c(sc(NC(=O)/C=C/c3cccnc3)c2C#N)C1 [Example 39, (E)-N-(6-Butyryl-3-cyano-4,5,6,7-tetrahydro-thieno[2,3-c]pyridin-2-yl)-3-pyridin-3-yl-acrylamide] | ≤ 2 | > 100
5 | CCCCOC(=O)N1CCc2c(sc(NC(=O)/C=C/c3cccnc3)c2C#N)C1 [Example 43, 3-Cyano-2-((E)-3-pyridin-3-yl-allanoylamino)-4,7-dihydro-5H-thieno[2,3-c]pyridine-6-carboxylic acid butyl ester] | ≤ 2 | > 100
6 | COC(=O)N1CCc2c(sc(NC(=O)/C=C/c3cccnc3)c2C#N)C1 [Example 44, 3-Cyano-2-((E)-3-pyridin-3-yl-allanoylamino)-4,7-dihydro-5H-thieno[2,3-c]pyridine-6-carboxylic acid methyl ester] | ≤ 2 | > 100
7 | COc1cccc(OC(=O)N2CCc3c(sc(NC(=O)/C=C/c4cccnc4)c3C#N)C2)c1 [Example 45, 3-Cyano-2-((E)-3-pyridin-3-yl-allanoylamino)-4,7-dihydro-5H-thieno[2,3-c]pyridine-6-carboxylic acid 3-methoxy-phenyl ester] | ≤ 2 | > 100
8 | N#Cc1c(NC(=O)/C=C/c2cccnc2)sc2c1CCN(C(=O)OCCc1ccccc1)C2 [Example 47, 3-Cyano-2-((E)-3-pyridin-3-yl-allanoylamino)-4,7-dihydro-5H-thieno[2,3-c]pyridine-6-carboxylic acid phenethyl ester] | ≤ 2 | > 100
9 | CCSC(=O)N1CCc2c(sc(NC(=O)/C=C/c3ccccc3Cl)c2C#N)C1 [Example 48, 2-[(E)-3-(2-Chloro-phenyl)-allanoylamino]-3-cyano-4,7-dihydro-5H-thieno[2,3-c]pyridine-6-carbothioic acid S-ethyl ester] | ≤ 2 | ≥ 100
10 | CCCCCSC(=O)N1CCc2c(sc(NC(=O)/C=C/c3ccccc3)c2C#N)C1 [Example 49, 3-Cyano-2-((E)-3-phenyl-allanoylamino)-4,7-dihydro-5H-thieno[2,3-c]pyridine-6-carbothioic acid S-pentyl ester] | ≤ 2 | ≥ 100
11 | CCSC(=O)N1CCc2c(sc(NC(=O)/C=C/c3ccccc3OC)c2C#N)C1 [Example 50, 3-Cyano-2-[(E)-3-(2-methoxy-phenyl)-allanoylamino]-4,7-dihydro-5H-thieno[2,3-c]pyridine-6-carbothioic acid S-ethyl ester] | ≤ 2 | ≥ 100
12 | N#Cc1c(NC(=O)/C=C/c2ccccc2)sc2c1CCN(C(=O)n1ccnc1)C2 [Example 53, (E)-N-[3-Cyano-6-(1-imidazol-1-yl-methanoyl)-4,5,6,7-tetrahydro-thieno[2,3-c]pyridin-2-yl]-3-phenyl-acrylamide] | ≤ 2 | ≥ 100
13 | CCOc1ccccc1/C=C/C(=O)Nc1sc2c(c1C#N)CCN(C(=O)OC(C)(C)C)C2 [Example 54, 3-Cyano-2-[(E)-3-(2-ethoxy-phenyl)-allanoylamino]-4,7-dihydro-5H-thieno[2,3-c]pyridine-6-carboxylic acid tert-butyl ester] | ≤ 0.5 | ≥ 50
14 | CC(C)(C)OC(=O)N1CCc2c(sc(NC(=O)/C=C/c3ccoc3)c2C#N)C1 [Example 55, 3-Cyano-2-((E)-3-furan-3-yl-allanoylamino)-4,7-dihydro-5H-thieno[2,3-c]pyridine-6-carboxylic acid tert-butyl ester] | ≤ 2 | ≥ 100
15 | CCOC(=O)N1CCc2c(sc(NC(=O)/C=C/c3c(F)ccc(F)c3Cl)c2C#N)C1 [Example 57, 2-[(E)-3-(2-Chloro-3,6-difluoro-phenyl)-allanoylamino]-3-cyano-4,7-dihydro-5H-thieno[2,3-c]pyridine-6-carboxylic acid ethyl ester] | ≤ 2 | ≥ 100
16 | CCOC(=O)N1CCc2c(sc(NC(=O)/C=C/c3ccc(Cl)cc3F)c2C#N)C1 [Example 59, 2-[(E)-3-(4-Chloro-2-fluoro-phenyl)-allanoylamino]-3-cyano-4,7-dihydro-5H-thieno[2,3-c]pyridine-6-carboxylic acid ethyl ester] | ≤ 2 | ≥ 100
17 | CCOC(=O)N1CCc2c(sc(NC(=O)/C=C/c3ccc(OCC)cc3)c2C#N)C1 [Example 60, 3-Cyano-2-[(E)-3-(4-ethoxy-phenyl)-allanoylamino]-4,7-dihydro-5H-thieno[2,3-c]pyridine-6-carboxylic acid ethyl ester] | ≤ 2 | ≥ 100
18 | CCOC(=O)N1CCc2c(sc(NC(=O)/C=C/c3cccc(Cl)c3F)c2C#N)C1 [Example 61, 3-Cyano-2-[(E)-3-(3-chloro-2-fluoro-phenyl)-allanoylamino]-4,7-dihydro-5H-thieno[2,3-c]pyridine-6-carboxylic acid ethyl ester] | ≤ 2 | ≥ 100
19 | CCOC(=O)N1CCc2c(sc(NC(=O)/C=C/c3ccccc3OCC)c2C#N)C1 [Example 62, 3-Cyano-2-[(E)-3-(2-ethoxy-phenyl)-allanoylamino]-4,7-dihydro-5H-thieno[2,3-c]pyridine-6-carboxylic acid ethyl ester] | ≤ 2 | ≥ 100
20 | CCOC(=O)N1CCc2c(sc(NC(=O)/C=C/c3sccc3Cl)c2C#N)C1 [Example 64, 2-[(E)-3-(3-Chloro-thiophen-2-yl)-allanoylamino]-cyano-4,7-dihydro-5H-thieno[2,3-c]pyridine-6-carboxylic acid ethyl ester] | ≤ 2 | ≥ 100
21 | CCOC(=O)N1CCc2c(sc(NC(=O)/C=C/c3c(F)cccc3F)c2C#N)C1 [Example 65, 3-Cyano-2-[(E)-3-(2,6-difluoro-phenyl)-allanoylamino]-4,7-dihydro-5H-thieno[2,3-c]pyridine-6-carboxylic acid ethyl ester] | ≤ 2 | ≥ 100
22 | CCOC(=O)N1CCc2c(sc(NC(=O)/C=C/c3ccccc3Br)c2C#N)C1 [Example 66, 2-[(E)-3-(2-Bromo-phenyl)-allanoylamino]-3-cyano-4,7-dihydro-5H-thieno[2,3-c]pyridine-6-carboxylic acid ethyl ester] | ≤ 2 | ≥ 100
23 | CCOC(=O)N1CCc2c(sc(NC(=O)/C=C/c3c(F)cccc3Cl)c2C#N)C1 [Example 67, 2-[(E)-3-(2-Chloro-6-fluoro-phenyl)-allanoylamino]-cyano-4,7-dihydro-5H-thieno[2,3-c]pyridine-6-carboxylic acid ethyl ester] | ≤ 2 | ≥ 100
24 | CCOC(=O)N1CCc2c(sc(NC(=O)/C=C/c3c(F)ccc(F)c3F)c2C#N)C1 [Example 68, 3-Cyano-2-[(E)-3-(2,3,6-trifluoro-phenyl)-allanoylamino]-4,7-dihydro-5H-thieno[2,3-c]pyridine-6-carboxylic acid ethyl ester] | ≤ 2 | ≥ 100
